The values below come from paper PMC8957246, “Synthesis and diverse biological activity profile of triethylammonium isatin-3-hydrazones” (ADMET & DMPK, 2022).

Where a name gives a salt, the structure may show the parent alone. Read-outs that look alike come from different tables or passages of the source. Marks after values point to notes of the source that are not given here. A value given as a limit tells only on which side of the number the result lay.

In data set [1] the test system is platelets (ADP-induced aggregation). Briefly: Platelet aggregation (Born method), ADP-induced. The class given is cell-based. Conditions: Homo sapiens, ADP 20 μg/mL, final concentration 2×10^–3 mol/L, median (25-75 percentiles), read-out: Platelets aggregation, % of control, ADP. Here is the method:
(§1) The in vitro experiments were performed using the blood of healthy male donors aged 18-24 years (total 54 donors). The study was approved by the Ethics Committee of Federal State Budgetary Educational Institution of Higher Education at the Bashkir State Medical University of the Ministry of Health of Russian Federation (No.2 dated 17.10.2012). Informed consent was obtained from all participants before blood sampling. The blood was collected from the cubital vein using the system of vacuum blood collection BD Vacutainer® (Becton, Dickinson and Company, USA). A 3.8 % sodium citrate solution in a 9:1 ratio was used as a venous blood stabiliser. The study of the effect on platelet aggregation was performed using the Born method using the aggregometer «AT-02» (SPC Medtech, Russia). The assessment of antiplatelet activity of the studied compounds and reference preparations was started with the final concentration of 2×10^–3 mol/L. Adenosine diphosphate (ADP; 20 μg/mL) and collagen (5 mg/mL) manufactured by Tehnologia-Standart Company, Russia, were used as inducers of aggregation. The study on the anticoagulant activity was performed by standard recognised clotting tests using the optical two-channel automatic analyser of blood coagulation Solar CGL 2110 (CJSC SOLAR, Belarus). The following parameters were studied: activated partial thromboplastin time (APTT), prothrombin time (PT) and fibrinogen concentrations according to the Clauss method. The determination of anticoagulant activity of the studied compounds and reference preparation was performed in a concentration of 5×10^–4 g/mL using the reagents manufactured by Tehnologia-Standart Company (Barnaul, Russia). The results of the study were processed using the statistical package Statistica 10.0 (StatSoft Inc, USA). The Shapiro–Wilk’s test was used to check the normality of actual data distribution. The form of distribution of the data obtained differed from the normal one; therefore, non-parametric methods were used for further analysis. The data were presented as medians and 25 and 75 percentiles. Analysis of variance was conducted using Kruskal–Wallis test. A p value of 0.05 was considered statistically significant.

The test system of data set [2] is Enterococcus faecalis ATCC 29212. Briefly: Antimicrobial activity, serial dilution (MIC/MBC), Ef. Format: cell-based. Conditions: ATCC29212. Here is the method: (§2) The antimicrobial activity of the test compounds was determined by the serial dilution technique in Muller Hinton Broth 2 and in Sabouradu broth for fungi. The cultures used for testing included Gram-positive bacteria: Staphylococcus aureus ATCC 6538P FDA 209P, Bacillus cereus ATCC 10702 NCTC 8035, Enterococcus faecalis ATCC 29212; Gram-negative bacteria: Escherichia coli ATCC 25922, Pseudomonas aeruginosa ATCC 9027, and fungi: Trichophyton mentagrophytes var. gypseum 1773, and Candida albicans ATCC 10231; methicillin-resistant strains of S. aureus (MRSA) was obtained from hospital patients with chronic tonsillitis in the Republican Clinical Hospital (Kazan, Russia). The bacterial load was 3.0 × 10^5 cfu/ml. The fungi load was 2.0 × 10^3 cfu/ml. The results were recorded every 24 h for 5-7 days. Cultures were incubated at 37 °C. The experiment was repeated three times. […] The minimum inhibitory concentration (MIC) was defined as the minimum concentration of a compound that inhibits the growth of the corresponding test microorganism. The growth of bacteria, as well as the absence of the growth due to the bacteriostatic action of compounds, were recorded.
(§3) Synthesized compounds were further evaluated for antimicrobial activity against test microorganisms: Staphylococcus aureus ATCC 209p (Sa), Bacillus cereus ATCC 8035 (Bc), Escherichia coli CDC F-50 (Ec), Enterococcus faecalis (Ef), Pseudomonas aeruginosa ATCC 9027, Aspergillus niger BKMF-1119, Trichophyton mentagrophytes var. gypseum 1773, and Candida albicans 855-653 including methicillin-resistant strains of S. aureus (MRSA 1 and MRSA 2). The minimum inhibitory (MIC) and minimum bactericidal (MBC) concentrations of ammonium salts were determined against these pathogens (Table 1). Due to the lack of activity of compounds 3a-g against Gram-negative bacterial strains and some fungi, the corresponding data are not shown.

The test system of data set [3] is Staphylococcus aureus ATCC 6538P FDA 209P. Briefly: Antimicrobial activity, serial dilution (MIC/MBC), Sa. The class given is cell-based. Particulars: Staphylococcus aureus. Here is the method: as §2, §3
Data set [4] concerns platelets (collagen-induced aggregation). Briefly: Platelet aggregation (Born method), collagen-induced. Conditions: Homo sapiens, collagen 5 mg/mL, final concentration 2×10^–3 mol/L, median (25-75 percentiles), read-out: Platelets aggregation, % of control, Collagen. Format: cell-based. Here is the method: as §1
The subject of data set [5] is activated partial thromboplastin time (intrinsic coagulation pathway). Briefly: Anticoagulant activity, clotting test APTT. Details: species or system human. Conditions: concentration 5×10^–4 g/mL; median (25-75 percentiles). The procedure: as §1
In data set [6] the test system is methicillin-resistant strains of S. aureus (MRSA-2). As to the kind of experiment: Antimicrobial activity, serial dilution (MIC/MBC), MRSA-2. The class given is cell-based. Particulars: Staphylococcus aureus. The procedure:
as §2, §3

The subject of data set [7] is Candida albicans ATCC 10231. As to the kind of experiment: Antimicrobial activity, serial dilution (MIC/MBC), Ca. The class given is cell-based. Conditions: ATCC10231. Here is the method:
as §2, §3

Data set [8] deals with Bacillus cereus ATCC 10702 NCTC 8035. Briefly: Antimicrobial activity, serial dilution (MIC/MBC), Bc. The class given is cell-based. The procedure: as §2, §3
In data set [9] the test system is methicillin-resistant strains of S. aureus (MRSA-1). Briefly: Antimicrobial activity, serial dilution (MIC/MBC), MRSA-1. The class given is cell-based. Particulars: Staphylococcus aureus. The procedure: as §2, §3
Another data set concerns human erythrocytes. Briefly: Hemolytic activity. Conditions: compared within series 3a-g and reference drug. The class given is cell-based. Here is the method: Hemolytic activity of test compounds was estimated by comparing the optical density of a solution containing the test compound with that of blood at 100 % hemolysis. The experiments were carried out as described earlier.
An important step in the determination of the biological activity of new chemical compounds is the assessment of their cytotoxic action in relation to mammalian cells. The ability of the investigated compound to cause the destruction of human erythrocytes illustrates its toxic effect on the internal environment of the body. The hemolysis assay is a simple screening test, the results of which can help in the study of cytotoxicity in more complex models. Such experimental models can be the cell lines obtained from various organs and tissues of a person and allowing to adequately assessing the effect of new potential drugs on cell metabolism.

Data set [10] concerns Chang liver cell line (Human liver cells). Conditions: reference drug compared with 3a-g.

Usually melting point stands for the temperature of the solid-liquid transition. For `CC[N+](CC)(CC)CC(=O)N/N=C1\C(=O)N(Cc2cc(C(C)(C)C)c(O)c(C(C)(C)C)c2)c2cccc(Br)c21` (as salt: bromide) [Compound 3e, 2-(2-(1-(3,5-Di-tert-butyl-4-hydroxybenzyl)-4-bromo-2-oxoindolin-3-ylidene)hydrazinyl)-N,N,N-triethyl-2-oxoethanammonium bromide], the melting point was 194 °C.

`CC[N+](CC)(CC)CC(=O)N/N=C1\C(=O)N(Cc2cc(C(C)(C)C)c(O)c(C(C)(C)C)c2)c2ccc([N+](=O)[O-])cc21` (as salt: bromide) [Compound 3f, 2-(2-(1-(3,5-Di-tert-butyl-4-hydroxybenzyl)-5-nitro-2-oxoindolin-3-ylidene)hydrazinyl)-N,N,N-triethyl-2-oxoethanammonium bromide] displayed a melting point of 176 °C.

Compound `CC[N+](CC)(CC)CC(=O)N/N=C1\C(=O)N(Cc2cc(C(C)(C)C)c(O)c(C(C)(C)C)c2)c2c(Br)cc(Cl)cc21` (as salt: bromide) [Compound 3g, 2-(2-(1-(3,5-Di-tert-butyl-4-hydroxybenzyl)-5-chloro-7-bromo-2-oxoindolin-3-ylidene)hydrazinyl)-N,N,N-triethyl-2-oxoethanammonium bromide] gave a melting point of 177 °C.

What is called MIC is the least concentration at which growth counts as inhibited. As to `CC[N+](CC)(CC)CC(=O)N/N=C1\C(=O)N(Cc2cc(C(C)(C)C)c(O)c(C(C)(C)C)c2)c2c(C)cccc21` [Compound 3b, 2-(2-(1-(3,5-Di-tert-butyl-4-hydroxybenzyl)-7-methyl-2-oxoindolin-3-ylidene)hydrazinyl)-N,N,N-triethyl-2-oxoethanammonium bromide], the results for the inhibition at 2000 µM in [1] and in [4] were 9.7% and 10.3%, respectively. In addition, the MBC in [2] is > 500 µM; in data set [3] (read-out: MBC (converted)), 25.4 µM; in [6] it was 50.8 µM; in data set [7], > 500 µM; in data set [8] (Bacillus cereus), 203 µM; in data set [9], 203 µM. For the same compound, the MIC is > 500 µM in data set [2]; 3.2 ± 0.2 µM in [3]; 25.4 ± 2.3 µM in data set [6]; > 500 µM in data set [7]; 25.4 ± 1.9 µM in data set [8]; ~25 µM in data set [8] (Bacillus cereus, read-out: MIC). The compound also displayed an MIC in data set [9] of 50.8 ± 4.1 µM. Also, the “APTT, % of control” value in data set [5] is recorded as “+7.3 (6.5-9.6) ^*, ^† % of control”. Besides, the “toxicity to red blood cells (in words)” value in the data set on human erythrocytes is “least toxic”.

With `COc1cccc2c1C(=O)c1c(O)c3c(c(O)c1C2=O)C[C@@](O)(C(=O)CO)C[C@@H]3O[C@H]1C[C@H](N)[C@H](O)[C@H](C)O1` [doxorubicin], in data set [10], the “toxicity to liver cells (in words)” value is recorded as “much more toxic”.

As for gramicidin S [reference compound], the “toxicity to red blood cells (in words)” value in the data set with human erythrocytes is listed as “much more toxic”.
